What was measured:
Assay in all cases: relative viability (nuclei count vs DMSO), 5 days (fraction); higher = more cells survive
[1] = compound: Cc1ccc(C(=O)N(CCCN)[C@@H](c2nc3cc(Cl)ccc3c(=O)n2Cc2ccccc2)C(C)C)cc1 [Ispinesib] + C[C@@H](Oc1cc(-c2cnn(C3CCNCC3)c2)cnc1N)c1c(Cl)ccc(F)c1Cl [Crizotinib] (partner 1 µM)
Summary of the method: (§1)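 Relative viability equals treated-well nuclei counts divided by vehicle-well nuclei counts. Counts came from 4× images of lung cancer cell lines grown in 1536-well plates for 5 days after pin-tool dosing on the day after seeding. Dosing used one drug alone or a fixed anchor-drug dose plus five library-drug doses (not always all listed) in √10 steps, and values are medians of duplicate plates.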

[2] = compound: C[C@]1(O)C[C@@H](c2nc(-c3ccc4ccc(-c5ccccc5)nc4c3)c3c(N)nccn32)C1 [Linsitinib] + Nc1nc2[nH]cc(CCc3ccc(C(=O)N[C@@H](CCC(=O)O)C(=O)O)cc3)c2c(=O)[nH]1 [Pemetrexed] (partner 0.2 µM)
Summary of the method: as §1

[3] = compound: Cc1ccc(C(=O)N(CCCN)[C@@H](c2nc3cc(Cl)ccc3c(=O)n2Cc2ccccc2)C(C)C)cc1 [Ispinesib] + CCNC(=O)c1noc(-c2cc(C(C)C)c(O)cc2O)c1-c1ccc(CN2CCOCC2)cc1 [Luminespib] (partner 0.01 µM)
Summary of the method: as §1

[4] = compound: C[C@]1(O)C[C@@H](c2nc(-c3ccc4ccc(-c5ccccc5)nc4c3)c3c(N)nccn32)C1 [Linsitinib] + Cc1nc(Nc2ncc(C(=O)Nc3c(C)cccc3Cl)s2)cc(N2CCN(CCO)CC2)n1 [Dasatinib] (partner 0.075 µM)
Summary of the method: as §1

With NCI-H1666 the relative viability ([1]; first compound 0.001 µM) was 0.952, the relative viability ([1]; first compound 0.003162 µM) was 1.12 and the relative viability ([1]; first compound 0.01 µM) was 0.948. It also gave a relative viability ([1]; first compound 0.03162 µM) of 0.794, a relative viability ([1]; first compound 0.1 µM) of 0.293 and a relative viability ([2]; first compound 0.01 µM) of 0.823. It also gave a relative viability ([2]; first compound 0.03162 µM) of 0.625, a relative viability ([2]; first compound 0.1 µM) of 0.83 and a relative viability ([2]; first compound 0.3162 µM) of 0.722. For the same cell line, the relative viability ([2]; first compound 1 µM) was 0.741, the relative viability ([3]; first compound 0.001 µM) was 1 and the relative viability ([3]; first compound 0.003162 µM) was 0.973. It also gave a relative viability ([3]; first compound 0.01 µM) of 0.946, a relative viability ([3]; first compound 0.03162 µM) of 0.887 and a relative viability ([3]; first compound 0.1 µM) of 0.501. The relative viability ([4]; first compound 0.01 µM) was 0.854, the relative viability ([4]; first compound 0.03162 µM) was 0.767 and the relative viability ([4]; first compound 0.1 µM) was 0.853. For the same cell line, the relative viability ([4]; first compound 0.3162 µM) was 0.64 and the relative viability ([4]; first compound 1 µM) was 0.473.
In the case of PC-3 [JPC-3], the relative viability ([1]; first compound 0.001 µM) is reported as 0.906, the relative viability ([1]; first compound 0.003162 µM) is reported as 1.04 and the relative viability ([1]; first compound 0.01 µM) is reported as 1.11. For the same cell line, the relative viability ([1]; first compound 0.03162 µM) was 1.04, the relative viability ([1]; first compound 0.1 µM) was 0.913 and the relative viability ([2]; first compound 0.01 µM) was 1.13. The relative viability ([2]; first compound 0.03162 µM) was 1.04, the relative viability ([2]; first compound 0.1 µM) was 1.2 and the relative viability ([2]; first compound 0.3162 µM) was 0.891. For the same cell line, the relative viability ([2]; first compound 1 µM) was 0.665, the relative viability ([3]; first compound 0.001 µM) was 0.716 and the relative viability ([3]; first compound 0.003162 µM) was 0.853. It also gave a relative viability ([3]; first compound 0.01 µM) of 0.75, a relative viability ([3]; first compound 0.03162 µM) of 0.748 and a relative viability ([3]; first compound 0.1 µM) of 0.548. The relative viability ([4]; first compound 0.01 µM) was 1, the relative viability ([4]; first compound 0.03162 µM) was 0.912 and the relative viability ([4]; first compound 0.1 µM) was 1.06. It also gave a relative viability ([4]; first compound 0.3162 µM) of 0.991 and a relative viability ([4]; first compound 1 µM) of 0.98.
Cell Line NCI-H1755 has a relative viability ([1]; first compound 0.001 µM) of 0.881, a relative viability ([1]; first compound 0.003162 µM) of 0.622 and a relative viability ([1]; first compound 0.01 µM) of 0.945. It also gave a relative viability ([1]; first compound 0.03162 µM) of 0.864, a relative viability ([1]; first compound 0.1 µM) of 0.461 and a relative viability ([2]; first compound 0.01 µM) of 0.388. For the same cell line, the relative viability ([2]; first compound 0.03162 µM) was 0.401, the relative viability ([2]; first compound 0.1 µM) was 0.653 and the relative viability ([2]; first compound 0.3162 µM) was 0.234. It also gave a relative viability ([2]; first compound 1 µM) of 0.398, a relative viability ([3]; first compound 0.001 µM) of 0.292 and a relative viability ([3]; first compound 0.003162 µM) of 0.641. It also gave a relative viability ([3]; first compound 0.01 µM) of 0.423, a relative viability ([3]; first compound 0.03162 µM) of 0.315 and a relative viability ([3]; first compound 0.1 µM) of 0.441. The relative viability ([4]; first compound 0.01 µM) was 0.428, the relative viability ([4]; first compound 0.03162 µM) was 0.431 and the relative viability ([4]; first compound 0.1 µM) was 0.427. For the same cell line, the relative viability ([4]; first compound 0.3162 µM) was 0.363 and the relative viability ([4]; first compound 1 µM) was 0.229.
RERF-LC-KJ gave a relative viability ([1]; first compound 0.001 µM) of 0.884, a relative viability ([1]; first compound 0.003162 µM) of 0.83 and a relative viability ([1]; first compound 0.01 µM) of 0.982. It also gave a relative viability ([1]; first compound 0.03162 µM) of 0.587, a relative viability ([1]; first compound 0.1 µM) of 0.301 and a relative viability ([2]; first compound 0.01 µM) of 0.414. It also gave a relative viability ([2]; first compound 0.03162 µM) of 0.461, a relative viability ([2]; first compound 0.1 µM) of 0.48 and a relative viability ([2]; first compound 0.3162 µM) of 0.349. It also gave a relative viability ([2]; first compound 1 µM) of 0.491, a relative viability ([3]; first compound 0.001 µM) of 1.49 and a relative viability ([3]; first compound 0.003162 µM) of 1.2. The relative viability ([3]; first compound 0.01 µM) was 0.958, the relative viability ([3]; first compound 0.03162 µM) was 0.259 and the relative viability ([3]; first compound 0.1 µM) was 0.442. The relative viability ([4]; first compound 0.01 µM) was 0.75, the relative viability ([4]; first compound 0.03162 µM) was 0.964 and the relative viability ([4]; first compound 0.1 µM) was 0.697. The relative viability ([4]; first compound 0.3162 µM) was 0.543 and the relative viability ([4]; first compound 1 µM) was 0.454.
With NCI-H647 the relative viability ([1]; first compound 0.001 µM) was 1.18, the relative viability ([1]; first compound 0.003162 µM) was 0.869 and the relative viability ([1]; first compound 0.01 µM) was 0.942. For the same cell line, the relative viability ([1]; first compound 0.03162 µM) was 0.416, the relative viability ([1]; first compound 0.1 µM) was 0.207 and the relative viability ([2]; first compound 0.01 µM) was 0.228. It also gave a relative viability ([2]; first compound 0.03162 µM) of 0.115, a relative viability ([2]; first compound 0.1 µM) of 0.185 and a relative viability ([2]; first compound 0.3162 µM) of 0.172. It also gave a relative viability ([2]; first compound 1 µM) of 0.197, a relative viability ([3]; first compound 0.001 µM) of 0.172 and a relative viability ([3]; first compound 0.003162 µM) of 0.28. For the same cell line, the relative viability ([3]; first compound 0.01 µM) was 0.233, the relative viability ([3]; first compound 0.03162 µM) was 0.229 and the relative viability ([3]; first compound 0.1 µM) was 0.151. The relative viability ([4]; first compound 0.01 µM) was 0.206, the relative viability ([4]; first compound 0.03162 µM) was 0.203 and the relative viability ([4]; first compound 0.1 µM) was 0.165. For the same cell line, the relative viability ([4]; first compound 1 µM) was 0.158.
BEN gave a relative viability ([1]; first compound 0.001 µM) of 1.08, a relative viability ([1]; first compound 0.003162 µM) of 1.01 and a relative viability ([1]; first compound 0.01 µM) of 1.04. It also gave a relative viability ([1]; first compound 0.03162 µM) of 0.507, a relative viability ([1]; first compound 0.1 µM) of 0.431 and a relative viability ([2]; first compound 0.01 µM) of 0.599. It also gave a relative viability ([2]; first compound 0.03162 µM) of 0.723, a relative viability ([2]; first compound 0.1 µM) of 0.704 and a relative viability ([2]; first compound 0.3162 µM) of 0.562. For the same cell line, the relative viability ([2]; first compound 1 µM) was 0.63, the relative viability ([3]; first compound 0.001 µM) was 0.617 and the relative viability ([3]; first compound 0.003162 µM) was 0.576. For the same cell line, the relative viability ([3]; first compound 0.01 µM) was 0.237, the relative viability ([3]; first compound 0.03162 µM) was 0.247 and the relative viability ([3]; first compound 0.1 µM) was 0.234. For the same cell line, the relative viability ([4]; first compound 0.01 µM) was 0.419, the relative viability ([4]; first compound 0.03162 µM) was 0.316 and the relative viability ([4]; first compound 0.1 µM) was 0.318. It also gave a relative viability ([4]; first compound 1 µM) of 0.352.
Work on 201T yielded a relative viability ([1]; first compound 0.001 µM) of 1.05, a relative viability ([1]; first compound 0.003162 µM) of 1.09 and a relative viability ([1]; first compound 0.01 µM) of 1.14. For the same cell line, the relative viability ([1]; first compound 0.03162 µM) was 1.04, the relative viability ([1]; first compound 0.1 µM) was 1.01 and the relative viability ([2]; first compound 0.01 µM) was 0.319. For the same cell line, the relative viability ([2]; first compound 0.03162 µM) was 0.272, the relative viability ([2]; first compound 0.1 µM) was 0.343 and the relative viability ([2]; first compound 0.3162 µM) was 0.287. It also gave a relative viability ([2]; first compound 1 µM) of 0.29, a relative viability ([3]; first compound 0.001 µM) of 1.07 and a relative viability ([3]; first compound 0.003162 µM) of 1.05. The relative viability ([3]; first compound 0.01 µM) was 1.15, the relative viability ([3]; first compound 0.03162 µM) was 0.988 and the relative viability ([3]; first compound 0.1 µM) was 0.937. The relative viability ([4]; first compound 0.01 µM) was 0.604, the relative viability ([4]; first compound 0.03162 µM) was 0.581 and the relative viability ([4]; first compound 0.1 µM) was 0.531. It also gave a relative viability ([4]; first compound 0.3162 µM) of 0.725 and a relative viability ([4]; first compound 1 µM) of 0.439.
Cell Line LC-2-ad has a relative viability ([1]; first compound 0.001 µM) of 0.447, a relative viability ([1]; first compound 0.003162 µM) of 0.317 and a relative viability ([1]; first compound 0.01 µM) of 0.439. The relative viability ([1]; first compound 0.03162 µM) was 0.368, the relative viability ([1]; first compound 0.1 µM) was 0.283 and the relative viability ([2]; first compound 0.01 µM) was 0.272. It also gave a relative viability ([2]; first compound 0.03162 µM) of 0.264, a relative viability ([2]; first compound 0.1 µM) of 0.256 and a relative viability ([2]; first compound 0.3162 µM) of 0.266. For the same cell line, the relative viability ([2]; first compound 1 µM) was 0.259, the relative viability ([3]; first compound 0.001 µM) was 1.08 and the relative viability ([3]; first compound 0.003162 µM) was 1.3. For the same cell line, the relative viability ([3]; first compound 0.01 µM) was 1.05, the relative viability ([3]; first compound 0.03162 µM) was 0.915 and the relative viability ([3]; first compound 0.1 µM) was 0.396. It also gave a relative viability ([4]; first compound 0.01 µM) of 0.481, a relative viability ([4]; first compound 0.03162 µM) of 0.31 and a relative viability ([4]; first compound 0.1 µM) of 0.385. For the same cell line, the relative viability ([4]; first compound 0.3162 µM) was 0.271 and the relative viability ([4]; first compound 1 µM) was 0.236.

From the supplement of paper PMC10307832
